One assay has as its system Male C57BL/6 mice. The experiment in a line: Contextual fear conditioning test, MK-801-induced deficits. Format: in vivo. The following applies: 30 mg/kg p.o. 60 min before test, MK-801 (maleate) 0.08 mg/kg s.c. 30 min before test, n=10, FIG. 1. The method, then: Improvement effect on MK-801 ((5S,10R)-5-methyl-10,11-dihydro-5H-5,10-epiminodibenzo[a,d][7]annulene)-induced disorder in contextual fear conditioning test.
Male C57BL/6 mice were purchased from CLEA Japan, Inc. They were used for an experiment after a habituation period of at least one week after carrying them in the animal experimental facility. They were bred in the animal experimental facility with environment in which 12-hours light-dark cycle was performed, humidity and temperature were controlled, and free water drinking and feeding were allowed. Handling of experimental animals and experimental procedure of this study were approved by the Experimental Animal Ethics Committee of Takeda Pharmaceutical Company Limited.
A test compound was suspended in 0.5% methylcellulose solution at a dose of 30 mg/kg, and orally administered. MK-801 (maleate) (Sigma-Aldrich, St Louis, Mo.) was dissolved in saline at a dose of 0.08 mg/kg, and subcutaneously administered. All drugs were administered to mice at a dose of 10 mL/kg.
Contextual fear conditioning test is widely used as memory and learning test system depending on the hippocampus and amygdala. The improvement effect of test compounds on MK-801-induced deficits was investigated by contextual fear conditioning test. The test compounds and MK-801 (maleate) were administered 60 min and 30 min, respectively, before the test. 0.5% methylcellulose and saline were administered to the control groups 60 min and 30 min, respectively, before the test. 0.5% methylcellulose and MK-801 (maleate) were administered to the vehicle groups 60 min and 30 min, respectively, before the test. […] In the test session on day 2 of the experiment, mice were placed in the same chamber for 7 minutes, and freezing was measured during that period. The freezing was calculated as a percentage of freezing rates during measuring period with use of an automatic analysis software manufactured by the O'Hara & Co., Ltd. All data were shown as the mean+standard error (n=10). […]

The target of a further assay is T1, human PDE2A3 enzyme (Homo sapiens, UniProt O00408).
T1 construct: Human PDE2A3 full-length gene was transduced into Sf9; His-tag; made in house; host or cells: Sf9 insect cells
The experiment in a line: PDE Enzyme Inhibitory Assay (SPA, [3H]cGMP substrate). The following applies: compound 1 μM; [3H]cGMP 77 nM; 60 min at room temperature; read-out: inhibitory rate (%) (1 μM). Format: biochemical. How it is done:
PDE Enzyme Inhibitory Assay Human PDE2A3 full-length gene was transduced into Sf9, and human PDE2A3 enzyme was purified by His-tag affinity column and gel filtration. The enzyme was stored at −70° C. until use. PDE activity was measured using a SPA (Scintillation Proximity Assay) (GE Healthcare). To evaluate the inhibitory activity of the compound, 10 μl of serial diluted compounds were reacted with 20 μl of PDE enzyme in assay buffer (50 mM HEPES-NaOH, 8.3 mM MgCl2, 1.7 mM EGTA, 0.1% BSA (pH 7.4)) for 30 min. at room temperature. Final concentration of DMSO in the reaction solution was 1 percent. Compounds were tested in duplicate in 96-well half-area plates (Corning) or 384-well OptiPlate (PerkinElmer). To start the reaction, 10 μl of substrate [^3H] cGMP (final concentration 77 nM, PerkinElmer) was added to a total volume of 40 μl. After reaction for 60 min at room temperature, 20 μl of 20 mg/mL yttrium SPA beads containing zinc sulfate was added to terminate the PDE reaction. After being settled for further 1 hour, the assay plates were counted in a scintillation counter (PerkinElmer) to allow calculation of inhibition rate. Inhibition rate was calculated on the basis of 0% control wells with enzyme and DMSO, and 100% control wells without enzyme.

T1 sequence (O00408 whole entry): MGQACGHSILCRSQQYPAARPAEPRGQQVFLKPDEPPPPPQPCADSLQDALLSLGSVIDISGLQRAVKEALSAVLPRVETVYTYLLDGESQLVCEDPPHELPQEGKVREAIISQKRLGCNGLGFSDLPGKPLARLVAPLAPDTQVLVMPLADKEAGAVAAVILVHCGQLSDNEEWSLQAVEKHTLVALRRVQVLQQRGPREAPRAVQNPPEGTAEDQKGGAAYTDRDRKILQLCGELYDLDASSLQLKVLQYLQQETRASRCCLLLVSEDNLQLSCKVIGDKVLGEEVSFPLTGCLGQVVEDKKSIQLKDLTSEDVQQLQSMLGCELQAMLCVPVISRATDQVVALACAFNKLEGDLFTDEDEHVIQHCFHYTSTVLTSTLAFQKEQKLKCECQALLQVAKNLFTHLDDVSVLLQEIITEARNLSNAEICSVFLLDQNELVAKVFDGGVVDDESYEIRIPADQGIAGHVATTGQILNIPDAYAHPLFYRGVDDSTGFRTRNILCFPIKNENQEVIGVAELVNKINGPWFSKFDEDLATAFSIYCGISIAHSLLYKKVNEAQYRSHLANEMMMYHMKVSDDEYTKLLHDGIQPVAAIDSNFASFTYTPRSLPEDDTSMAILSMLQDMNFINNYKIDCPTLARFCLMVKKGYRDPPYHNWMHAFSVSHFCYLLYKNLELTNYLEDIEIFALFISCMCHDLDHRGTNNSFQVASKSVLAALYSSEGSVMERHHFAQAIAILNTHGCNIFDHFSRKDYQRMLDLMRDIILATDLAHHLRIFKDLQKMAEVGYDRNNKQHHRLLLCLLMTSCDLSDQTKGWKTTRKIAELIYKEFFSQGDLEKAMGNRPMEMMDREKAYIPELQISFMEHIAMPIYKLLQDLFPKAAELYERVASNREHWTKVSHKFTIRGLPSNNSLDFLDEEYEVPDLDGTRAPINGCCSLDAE

With `Cc1cn(-c2nc3c(C(=O)N[C@@H](c4ccc(OC(F)(F)F)cc4)C(C)(C)O)cnn3cc2C)nn1` [Example 80, N-((1S)-2-hydroxy-2-methyl-1-(4-(trifluoromethoxy)phenyl)propyl)-6-methyl-5-(4-methyl-1H-1,2,3-triazol-1-yl)pyrazolo[1,5-a]pyrimidine-3-carboxamide], in the assay with Male C57BL/6 mice, the “improvement effect on MK-801-induced deficits in contextual fear conditioning test (freezing)” value is “improvement effect on MK-801-induced deficits was shown”. Further, the inhibition at 1 µM on human PDE2A3 enzyme is 100%.
On the same counts, the results for `Cc1ncn(-c2nc3c(C(=O)N[C@@H](c4ccc(OC(F)(F)F)cc4)C(C)(C)O)cnn3cc2C)n1` [Example 161, N-((1S)-2-hydroxy-2-methyl-1-(4-(trifluoromethoxy)phenyl)propyl)-6-methyl-5-(3-methyl-1H-1,2,4-triazol-1-yl)pyrazolo[1,5-a]pyrimidine-3-carboxamide] are “improvement effect on MK-801-induced deficits was shown” and 100%.
